Assay results: US7498406B2, “Substantially cell membrane impermeable compound and use thereof” (priority 1999, dated 2009)
Entries after “also recorded” stand apart in the source; their conditions may differ.

How the values were obtained:
[1] = test system: BxPC-3 tumours; assay: Tumour growth in mice, subcutaneous administration; format: in vivo, SCID mice; settings: for inhibition of the rate of BxPC-3 tumour growth: subcutaneous
Method: FIG. 23. Inhibition of human pancreatic tumour growth by GSAO. BxPC-3 tumours were established in the proximal midline of female 7 to 9 week old SCID mice. When the tumours were ˜0.1 cm^3 in volume the mice were randomised into two groups and treated with either GSAA or GSAO at doses of 2 (part A) or 10 (part B) mg per kg per day in 0.2 mL of PBS containing 100 mM glycine. The compounds were administered subcutaneously at a site distant from the tumour. Tumour volume and animal weight was measured every 3 days. The GSAO/GSAA tumour volume ratio at day 26 of treatment with 2 mg per kg per day was 0.34 (part A). The GSAO/GSAA tumour volume ratio at day 31 of treatment with 10 mg per kg per day was 0.09 (part B). There were 4 mice per group in part A and 4 mice treated with GSAA and 5 with GSAO in part B. The mice and excised tumours from the experiment described in Part B at day 31 of treatment are shown in Part C. The data points and errors represent the mean and SE of the tumour volumes.
(§1) Female 7 to 9 week old SCID or C57Bl6/J mice were used (Massachusetts General Hospital, Boston, Mass.). Mice were held in groups of 3 to 5 at a 12 hour day and night cycle and were fed with animal chow and water ad libidum. SCID mice were anaesthetised by inhalation of isoflurane, the dorsal skin shaved and cleaned with ethanol, and a suspension of 2.5×10^6 BxPC-3 or HT1080 cells in 0.2 mL of DMEM was injected subcutaneously in the proximal midline. C57Bl6/J mice with Lewis lung carcinomas of 0.6-1.2 cm^3 volumes were sacrificed and the skin overlying the tumour was cleaned with betadine and ethanol. Tumour tissue was excised under aseptic conditions and a suspension of tumour cells in 0.9% saline was made by passage of tumour tissue through a sieve and a series of sequentially smaller 22- to 30-gauge hypodermic needles. C57Bl6/J mice were anaesthetised and prepared as for SCID mice and a suspension of Lewis lung carcinoma cells in 0.2 mL of saline was injected subcutaneously in the proximal midline. Tumours were allowed to establish and grow to a size of ˜0.1 cm^3 after which they were randomised into two groups. The tumours were measured in two diameters and tumour volume was calculated using the relationship, tumour volume=a×b^2×0.52, where a is the longest and b the shortest diameters in cm. Animals were treated with either GSAA or GSAO at doses of 2 or 10 mg per kg per day in 0.2 mL of PBS containing 100 mM glycine. The compounds were administered subcutaneously at a site distant from the tumour. Tumour volume and animal weight was measured every 3 days. The tumours were excised and weighed when the animals were sacrificed.

[2] = format: in vivo, SCID mice; settings: for macroscopic differences to untreated mice / morphological changes in heart, lungs, liver, kidneys, spleen: 10 mg per kg per day; for macroscopic differences to untreated mice: end of experiment; for morphological changes in heart, lungs, liver, kidneys, spleen: light microscopy (not shown); for adverse side effects of administration: 2 or 10 mg per kg per day, subcutaneous
Method: FIG. 24. […] The data points and errors represent the mean and SE of the animal weights for the experiment described in FIG. 23.
as §1
At the conclusion of the experiment described in FIG. 23B the mice from both treatment groups were examined. […] The heart, lungs, liver, kidneys, and spleen of the GSAA or GSAO-treated and untreated mice were fixed in formaldehyde, embedded in paraffin, sectioned, stained with haematoxylin and eosin and examined by light microscopy.

[3] = test system: BxPC-3 tumours; assay: Histological analysis of BxPC-3 tumours (CD-31, PCNA, TUNEL); format: in vivo, SCID mice; settings: for necrosis of treated tumours: not shown
Method: FIG. 26. Inhibition of angiogenesis in human pancreatic tumours by GSAO. Histological sections of the BxPC-3 tumours shown in part C of FIG. 23 from GSAA and GSAO-treated mice were analysed for angiogenesis (CD-31), proliferation (PCNA) and apoptosis (TUNEL).
The tumours shown in FIG. 23C were fixed in Buffered Formalde-Fresh (Fisher Scientific, Fair Lawn, N.J.), embedded in paraffin and […] sections were cut and placed on glass slides. Sections were stained with haematoxylin and eosin or for CD31, PCNA or fragmented DNA (TUNEL). Sections were incubated overnight at 4° C. with a […] of anti-mouse CD-31 antibody (PharMingen, San Diego, Calif.) followed by a 1:200 dilution of biotinylated anti-rat secondary antibody (Vestor, Burlingame, Calif.). The staining was enhanced by tyramide amplification (New England Nuclear, Boston, Mass.). Staining for PCNA was performed as described by Holmgren et al. (1995) while TUNEL labeling of fragmented DNA was performed according to Gavrielli et al. (1992).
Vascular density was determined by selecting 3 tumours, including the smallest and largest, from the control and treatment groups. […] The highest of the three counts was the value taken and two sections from each tumour was examined. The proliferative index was estimated by the percentage of cells scored under 400× magnification (Holmgren et al., 1995). A minimum of 1000 cells was counted in two separate sections. The apoptotic index was estimated by the percentage of cells scored under 400× magnification. A minimum of 1500 cells was counted in two separate sections (Holmgren et al., 1995).

[4] = test system: BxPC-3 tumours; assay: Tumour growth, continuous intraperitoneal administration by micro-osmotic pumps; format: in vivo, SCID mice; settings: 10 mg per kg per day
Method: FIG. 27. Inhibition of human pancreatic carcinoma tumour growth by continuous intraperitoneal administration of GSAO. BxPC-3 tumours were established in the proximal midline of female 7 to 9 week old SCID mice. Mice bearing ˜0.1 g tumours were implanted with 14 day alzet model 1002 micro-osmotic pumps (ALZA Corporation, Palo Alto, Calif.) in the peritoneal cavity. The pumps contained 45 mg per mL GSAA or GSAO and delivered 10 mg per kg per day. The pumps were replaced after 14 days. Pump duration is indicated by the shaded bar. Tumour volume and animal weight was measured every 3 days.
SCID mice bearing subcutaneous human BxPC-3-pancreatic carcinoma tumours were implanted with 14 day micro-osmotic pumps in the peritoneal cavity. The pumps delivered 10 mg per kg per day GSAA or GSAO and were replaced after 14 days with fresh pumps. The rate of growth of the BxPC-3 tumours was inhibited in the mice receiving GSAO (FIG. 27). […] When the second pump was exhausted one of the halted tumours began to grow at about the same rate as the GSAA-treated tumour while the other tumour had resolved completely.

Row | Structure (SMILES) | inhibition of the rate of BxPC-3 tumour growth ([1]; 2 mg per kg per day) | inhibition of the rate of BxPC-3 tumour growth ([1]; 10 mg per kg per day) [%] | macroscopic differences to untreated mice [2] | morphological changes in heart, lungs, liver, kidneys, spleen [2] | adverse side effects of administration [2] | necrosis of treated tumours [3] | rate of BxPC-3 tumour growth [4] | GSAO/GSAA tumour volume ratio ([1]; day 26 of treatment, 2 mg per kg per day) | GSAO/GSAA tumour volume ratio ([1]; day 31 of treatment, 10 mg per kg per day) | proliferative index of tumour cells (PCNA) ([3]; GSAO- vs GSAA-treated) | tumour angiogenesis (CD-31) ([3]; GSAO- vs GSAA-treated, 10 mg per kg per day, day 31, p<0.001) | apoptotic index of tumour cells (TUNEL) ([3]; GSAO- vs GSAA-treated, p=0.05) | slowing of tumour growth in one mouse [4] [%]
1 | N[C@@H](CCC(=O)N[C@@H](CSCC(=O)Nc1ccc([As](=O)(O)O)cc1)C(=O)NCC(=O)O)C(=O)O [GSAA, 4-(N-(S-glutathionylacetyl)amino)phenylarsonic acid, reference compound] | no effect | < 20 | no apparent macroscopic differences | no obvious morphological changes | no apparent adverse side effects | no macroscopic or microscopic signs of necrosis | no significant effect |  |  |  |  |  | 
2 | NC(CCC(=O)NC(CSCC(=O)Nc1ccc([As]=O)cc1)C(=O)NCC(=O)O)C(=O)O (centres unmarked) [GSAO, 4-(N-(S-glutathionylacetyl)amino)-phenylarsenoxide] | ~70% | > 90 | no apparent macroscopic differences | no obvious morphological changes | no apparent adverse side effects | no macroscopic or microscopic signs of necrosis | halted completely in two other mice | 0.34 | 0.09 | no significant difference | marked suppression of angiogenesis; also recorded: marked reduction in angiogenesis | increase in the apoptotic index | 50
